Experimental data as given in patent publication US20060167109A1, “Methods of reducing rhinovirus contagion and related compositions” (priority 2002, published 2006).

Assays:
Test in all cases: HRV cytopathic effect assay
Assay type in all cases: cell-based
Details in all cases: Human rhinovirus sp.
HRV serotype 13 = system: HRV serotype 13
Description: (§1) For sensitivity testing to pleconaril, the appropriate cells were seeded into 96 well plates at a concentration of 4×10^4/well. After an overnight incubation at 37° C., the medium was removed and the cells were infected with 150 μL of a dilution of virus previously titrated to give ≧85% lysis of the monolayer after 3 days of incubation. The plates were incubated for 1 hour at the appropriate temperature and then overlaid with 50 μL of medium containing serial 2-fold dilutions of pleconaril in 2% DMSO. The final DMSO concentration in the assay was always 0.5%. No virus and no pleconaril controls were included on each plate. All drug concentrations were run in quadruplicate. The plates were then incubated for 3 days at the appropriate temperature followed by processing as described above.

HRV serotype 14 = system: HRV serotype 14
Description: as §1

HRV serotype 16 = system: HRV serotype 16
Description: as §1

HRV serotype 17 = system: HRV serotype 17
Description: as §1

HRV serotype 18 = system: HRV serotype 18
Description: as §1

HRV serotype 22 = system: HRV serotype 22
Description: as §1

HRV serotype 23 = system: HRV serotype 23
Description: as §1

HRV serotype 25 = system: HRV serotype 25
Description: as §1

HRV serotype 26 = system: HRV serotype 26
Description: as §1

HRV serotype 28 = system: HRV serotype 28
Description: as §1

HRV serotype 29 = system: HRV serotype 29
Description: as §1

HRV serotype 30 = system: HRV serotype 30
Description: as §1

HRV serotype 31 = system: HRV serotype 31
Description: as §1

HRV serotype 34 = system: HRV serotype 34
Description: as §1

HRV serotype 36 = system: HRV serotype 36
Description: as §1

HRV serotype 38 = system: HRV serotype 38
Description: as §1

HRV serotype 39 = system: HRV serotype 39
Description: as §1

HRV serotype 3 = system: HRV serotype 3
Description: as §1

HRV serotype 42 = system: HRV serotype 42
Description: as §1

HRV serotype 48 = system: HRV serotype 48
Description: as §1

HRV serotype 50 = system: HRV serotype 50
Description: as §1

HRV serotype 51 = system: HRV serotype 51
Description: as §1

HRV serotype 52 = system: HRV serotype 52
Description: as §1

HRV serotype 55 = system: HRV serotype 55
Description: as §1

HRV serotype 56 = system: HRV serotype 56
Description: as §1

HRV serotype 5 = system: HRV serotype 5
Description: as §1

HRV serotype 60 = system: HRV serotype 60
Description: as §1

HRV serotype 63 = system: HRV serotype 63
Description: as §1

HRV serotype 71 = system: HRV serotype 71
Description: as §1

HRV serotype 72 = system: HRV serotype 72
Description: as §1

HRV serotype 74 = system: HRV serotype 74
Description: as §1

HRV serotype 75 = system: HRV serotype 75
Description: as §1

HRV serotype 78 = system: HRV serotype 78
Description: as §1

HRV serotype 79 = system: HRV serotype 79
Description: as §1

HRV serotype 7 = system: HRV serotype 7
Description: as §1

HRV serotype 82 = system: HRV serotype 82
Description: as §1

HRV serotype 88 = system: HRV serotype 88
Description: as §1

HRV serotype 89 = system: HRV serotype 89
Description: as §1

HRV serotype 8 = system: HRV serotype 8
Description: as §1

HRV serotype 94 = system: HRV serotype 94
Description: as §1

HRV serotype 95 = system: HRV serotype 95
Description: as §1

HRV serotype 98 = system: HRV serotype 98
Description: as §1

HRV serotype 99 = system: HRV serotype 99
Description: as §1

Cc1cc(CCCOc2c(C)cc(-c3noc(C(F)(F)F)n3)cc2C)on1 [pleconaril, 3-[3,5-dimethyl-4-[3-(3-methyl-5-isoxazolyl)propoxy]phenyl]-5-(trifluoromethyl)-1,2,4-oxadiazole]
IC50 (HRV serotype 13): 580 ± 130 nM
IC50 (HRV serotype 14; HRV14, Table 2, mean of at least two independent determinations): 160 ± 90 nM
IC50 (HRV serotype 14; serotype 14): 160 ± 90 nM
IC50 (HRV serotype 16): 570 ± 190 nM
IC50 (HRV serotype 17): 230 ± 80 nM
IC50 (HRV serotype 18): 240 ± 100 nM
IC50 (HRV serotype 22): 40 ± 20 nM
IC50 (HRV serotype 23): 320 ± 10 nM
IC50 (HRV serotype 25): 100 ± 10 nM
IC50 (HRV serotype 26): 1600 ± 600 nM
IC50 (HRV serotype 28): 200 ± 70 nM
IC50 (HRV serotype 29): 270 ± 70 nM
IC50 (HRV serotype 30): 230 ± 80 nM
IC50 (HRV serotype 31): 130 ± 70 nM
IC50 (HRV serotype 34): 90 ± 20 nM
IC50 (HRV serotype 36): 110 ± 20 nM
IC50 (HRV serotype 38): 100 ± 40 nM
IC50 (HRV serotype 39): 10 nM
IC50 (HRV serotype 3; HRV3, Table 2, mean of at least two independent determinations): 90 ± 40 nM
IC50 (HRV serotype 3; serotype 3): 90 ± 40 nM
IC50 (HRV serotype 42): > 12500 nM
IC50 (HRV serotype 48): 1800 ± 630 nM
IC50 (HRV serotype 50; HRV50, Table 2, mean of at least two independent determinations): 350 ± 70 nM
IC50 (HRV serotype 50; serotype 50): 350 ± 70 nM
IC50 (HRV serotype 51): 50 ± 30 nM
IC50 (HRV serotype 52): 2490 ± 1210 nM
IC50 (HRV serotype 55): 20 ± 20 nM
IC50 (HRV serotype 56): 110 ± 60 nM
IC50 (HRV serotype 5): > 12500 nM
IC50 (HRV serotype 60): 480 ± 140 nM
IC50 (HRV serotype 63): 160 ± 80 nM
IC50 (HRV serotype 71): 20 ± 10 nM
IC50 (HRV serotype 72): 940 ± 300 nM
IC50 (HRV serotype 74): 30 nM
IC50 (HRV serotype 75): 110 ± 60 nM
IC50 (HRV serotype 78): 80 ± 40 nM
IC50 (HRV serotype 79): 40 ± 60 nM
IC50 (HRV serotype 7): 50 ± 10 nM
IC50 (HRV serotype 82): 220 ± 190 nM
IC50 (HRV serotype 88): 100 ± 40 nM
IC50 (HRV serotype 89; HRV89, Table 2, mean of at least two independent determinations): 50 ± 10 nM
IC50 (HRV serotype 89; serotype 89): 50 ± 10 nM
IC50 (HRV serotype 8): 3420 ± 2700 nM
IC50 (HRV serotype 94): 1100 ± 440 nM
IC50 (HRV serotype 95): 810 ± 510 nM
IC50 (HRV serotype 98): 1800 ± 1620 nM
IC50 (HRV serotype 99): > 12500 nM
